Structures can show the parent of a compound that is named as a salt.
Molecular target: Proton Pump (H^+/K^+-ATPase) (Sus scrofa, UniProt P19156)
Experiment: Inhibitory effects on proton pump (H^+/K^+-ATPase) activity
Format: biochemical
Conditions: hog gastric vesicles; K^+ stimulated H^+/K^+-ATPase activity; 30 minutes at 37° C.

Proton Pump (H^+/K^+-ATPase), sequence (P19156 2-1034 limits assumed): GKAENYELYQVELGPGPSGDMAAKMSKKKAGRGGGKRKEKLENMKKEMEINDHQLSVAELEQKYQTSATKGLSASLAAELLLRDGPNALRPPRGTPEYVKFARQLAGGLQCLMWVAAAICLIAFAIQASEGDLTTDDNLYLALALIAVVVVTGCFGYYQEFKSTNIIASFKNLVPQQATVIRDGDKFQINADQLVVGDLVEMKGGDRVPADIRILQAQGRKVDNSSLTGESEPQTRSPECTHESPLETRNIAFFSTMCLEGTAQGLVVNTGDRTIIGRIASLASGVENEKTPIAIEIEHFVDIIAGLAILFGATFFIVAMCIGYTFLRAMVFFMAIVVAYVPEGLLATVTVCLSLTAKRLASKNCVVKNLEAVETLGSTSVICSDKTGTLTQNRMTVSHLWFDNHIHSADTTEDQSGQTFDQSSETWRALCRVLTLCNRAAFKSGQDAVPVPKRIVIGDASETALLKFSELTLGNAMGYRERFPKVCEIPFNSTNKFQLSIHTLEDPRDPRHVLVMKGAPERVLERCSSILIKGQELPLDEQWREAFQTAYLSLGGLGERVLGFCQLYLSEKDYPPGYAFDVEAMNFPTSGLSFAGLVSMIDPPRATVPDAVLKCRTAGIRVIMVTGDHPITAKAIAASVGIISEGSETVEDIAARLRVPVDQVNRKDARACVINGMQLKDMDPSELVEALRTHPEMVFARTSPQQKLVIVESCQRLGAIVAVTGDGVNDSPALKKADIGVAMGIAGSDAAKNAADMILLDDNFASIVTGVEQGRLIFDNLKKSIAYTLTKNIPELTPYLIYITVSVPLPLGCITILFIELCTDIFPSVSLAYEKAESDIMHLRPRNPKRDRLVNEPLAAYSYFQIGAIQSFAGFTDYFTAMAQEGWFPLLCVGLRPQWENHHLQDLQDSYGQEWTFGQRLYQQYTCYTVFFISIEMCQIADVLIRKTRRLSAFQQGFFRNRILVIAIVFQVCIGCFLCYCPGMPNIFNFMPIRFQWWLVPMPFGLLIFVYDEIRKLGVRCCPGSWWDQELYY
Proton Pump (H^+/K^+-ATPase), sequence (P18434 whole entry partner): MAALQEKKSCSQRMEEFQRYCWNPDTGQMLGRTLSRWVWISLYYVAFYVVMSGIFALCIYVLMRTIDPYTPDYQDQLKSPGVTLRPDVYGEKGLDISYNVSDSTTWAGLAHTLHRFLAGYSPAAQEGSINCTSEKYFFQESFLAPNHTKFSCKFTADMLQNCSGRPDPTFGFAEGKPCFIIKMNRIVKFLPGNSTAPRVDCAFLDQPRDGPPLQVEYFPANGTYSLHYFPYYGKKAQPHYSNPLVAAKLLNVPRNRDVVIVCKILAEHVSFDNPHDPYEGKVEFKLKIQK

| SMILES | IC50 [nM] |
| --- | --- |
| Cc1c(C)n(Cc2ccccc2)c2c(NCc3ccc(F)cc3)nccc12 [Example 214, 1-benzyl-7-(4-fluorobenzylamino)-2,3-dimethyl-1H-pyrrolo[2,3-c]pyridine hydrochloride] | 290 |
| CCOCCn1c(C)c(C)c2ccnc(N3CCc4ccccc4C3)c21 [Example 503, 1-(2-ethoxyethyl)-7-(1,2,3,4-tetrahydroisoquinolin-2-yl)-2,3-dimethyl-1H-pyrrolo[2,3-c]pyridine hydrochloride] | 160 |
| C=Cc1ccc(-c2nccc3c(C)c(C)[nH]c23)cc1 [Example 242, 2,3-dimethyl-7-(4-vinylphenyl)-1H-pyrrolo[2,3-c]pyridine] | 100 |
| Cc1c(C)n(CC(C)C)c2c(CCc3ccccc3)nccc12 [Example 447, 1-isobutyl-2,3-dimethyl-7-phenethyl-1H-pyrrolo[2,3-c]pyridine hydrochloride] | 460 |
| C=CCn1c(C)c(C)c2ccnc(COc3ccc(F)cc3)c21 [Example 2, 1-allyl-7-(4-fluorophenoxymethyl)-2,3-dimethyl-1H-pyrrolo[2,3-c]pyridine hydrochloride] | 410 |
| COc1cccc(Cn2c(C)c(C)c3ccnc(-c4ccc(SC)cc4)c32)c1 [Example 266, 1-(3-methoxybenzyl)-2,3-dimethyl-7-(4-methylsulfanylphenyl)-1H-pyrrolo[2,3-c]pyridine hydrochloride] | 140 |
| Cc1[nH]c2c(-c3ccc4ccccc4c3)nccc2c1C [Example 410, 2,3-dimethyl-7-(naphthalen-2-yl)-1H-pyrrolo[2,3-c]pyridine sodium] | 99 |
| Cc1ccc(CNc2nccc3c(C)c(C)n(CC(C)C)c23)cc1 [Example 198, 1-isobutyl-2,3-dimethyl-7-(4-methylbenzylamino)-1H-pyrrolo[2,3-c]pyridine hydrochloride] | 64 |
| CCCn1c(C)c(C)c2ccnc(NCc3ccc(C)cc3)c21 [Example 205, 2,3-dimethyl-7-(4-methylbenzylamino)-1-propyl-1H-pyrrolo[2,3-c]pyridine hydrochloride] | 330 |
| Cc1c(C)n(CC2CC2)c2c(N3CCc4ccccc4C3)nccc12 [Example 497, 1-cyclopropylmethyl-7-(1,2,3,4-tetrahydroisoquinolin-2-yl)-2,3-dimethyl-1H-pyrrolo[2,3-c]pyridine hydrochloride] | 320 |
| Cc1c(C)n(Cc2ccc(Cl)cc2)c2c(CN(C)c3ccc(F)cc3)nccc12 [Example 113, N-[1-(4-chlorobenzyl)-2,3-dimethyl-1H-pyrrolo[2,3-c]pyridin-7-ylmethyl]-N-(4-fluorophenyl)-methylamine hydrochloride] | 327 |
| COc1cccc(Cn2c(C)c(C)c3ccnc(-c4ccc(C)cc4)c32)c1 [Example 278, 1-(3-methoxybenzyl)-2,3-dimethyl-7-(p-tolyl)-1H-pyrrolo[2,3-c]pyridine hydrochloride] | 390 |
| Cc1c(C)n(CC(C)C)c2c(N(C)Cc3ccc(F)cc3)nccc12 [Example 149, 7-[N-(4-fluorobenzyl)-N-methyl]amino-1-isobutyl-2,3-dimethyl-1H-pyrrolo[2,3-c]pyridine hydrochloride] | 210 |
| COc1cccc(Cn2c(C)c(C)c3ccnc(COc4ccc(C)cc4)c32)c1 [Example 16, 1-(3-methoxybenzyl)-2,3-dimethyl-7-(p-tolyloxymethyl)-1H-pyrrolo[2,3-c]pyridine hydrochloride] | 180 |

Next, values leading:

| IC50 [nM] | SMILES |
| --- | --- |
| 120 | C=CCn1c(C)c(C)c2ccnc(N3CCc4ccccc4C3C3CC3)c21 (centres unmarked) [Example 570, 2-(1-allyl-2,3-dimethyl-1H-pyrrolo[2,3-c]pyridin-7-yl)-1-cyclopropyl-1,2,3,4-tetrahydroisoquinoline hydrochloride] |
| 36 | Cc1c(C)n(Cc2ccccc2)c2c(N3CCc4ccccc4C3)nc(C(=O)N(C)C)cc12 [Example 771, 1-benzyl-7-(3,4-dihydro-1H-isoquinolin-2-yl)-2,3-dimethyl-N-dimethyl-1H-pyrrolo[2,3-c]pyridin-5-carboxamide hydrochloride] |
| 3 | COc1cccc(Cn2c(C)c(C)c3cc(C(=O)N4CCN(C)CC4)nc(N4CCc5ccccc5C4)c32)c1 [Example 783, [7-(3,4-dihydro-1H-isoquinolin-2-yl)-1-(3-methoxybenzyl)-2,3-dimethyl-1H-pyrrolo[2,3-c]pyridin-5-yl]-(4-methylpiperazin-1-yl)-methanone hydrochloride] |
| 39 | Cc1c(C)n(CC2CC2)c2c(N3CCc4ccccc4C3)nc(C(=O)N3CCOCC3)cc12 [Example 778, [1-cyclopropylmethyl-7-(3,4-dihydro-1H-isoquinolin-2-yl)-2,3-dimethyl-1H-pyrrolo[2,3-c]pyridin-5-yl]-(morpholin-4-yl)-methanone hydrochloride] |
| 94 | Cc1ccc(Cn2c(C)c(C)c3cc(C(=O)N4CCN(C)CC4)nc(N4CCc5ccccc5C4)c32)cc1 [Example 828, [7-(3,4-dihydro-1H-isoquinolin-2-yl)-1-(4-methylbenzyl)-2,3-dimethyl-1H-pyrrolo[2,3-c]pyridin-5-yl]-(4-methylpiperazin-1-yl)-methanone hydrochloride] |
| 65 | Cc1[nH]c2c(N3CCc4cc(F)ccc4C3C)nccc2c1C (centres unmarked) [Example 561, 6-fluoro-2-(2,3-dimethyl-1H-pyrrolo[2,3-c]pyridin-7-yl)-1-methyl-1,2,3,4-tetrahydroisoquinoline hydrochloride] |
| 190 | C=CCn1c(C)c(C)c2ccnc(N3CCc4ccc(Cl)cc4C3C)c21 (centres unmarked) [Example 531, 7-chloro-2-(1-allyl-2,3-dimethyl-1H-pyrrolo[2,3-c]pyridin-7-yl)-1-methyl-1,2,3,4-tetrahydroisoquinoline hydrochloride] |
| 79 | COc1ccc(Cn2c(C)c(C)c3cc(C(=O)N4CCN(C)CC4)nc(N4CCc5ccccc5C4)c32)cc1 [Example 829, [7-(3,4-dihydro-1H-isoquinolin-2-yl)-1-(4-methoxybenzyl)-2,3-dimethyl-1H-pyrrolo[2,3-c]pyridin-5-yl]-(4-methylpiperazin-1-yl)-methanone hydrochloride] |
| 350 | Cc1[nH]c2c(N3CCc4ccc(F)cc4C3C)nccc2c1C (centres unmarked) [Example 541, 7-fluoro-2-(2,3-dimethyl-1H-pyrrolo[2,3-c]pyridin-7-yl)-1-methyl-1,2,3,4-tetrahydroisoquinoline hydrochloride] |
| 298 | Cc1c(C)n(Cc2cccc(Cl)c2)c2c(N3CCc4ccccc4C3)nc(C(N)=O)cc12 [Example 750, 1-(3-chlorobenzyl)-7-(3,4-dihydro-1H-isoquinolin-2-yl)-2,3-dimethyl-1H-pyrrolo[2,3-c]pyridin-5-carboxamide] |
| 410 | Cc1ccc(Cn2c(C)c(C)c3ccnc(N4CCc5ccc(F)cc5C4C)c32)cc1 (centres unmarked) [Example 548, 2-[2,3-dimethyl-1-(4-methylbenzyl)-1H-pyrrolo[2,3-c]pyridin-7-yl]-7-fluoro-1-methyl-1,2,3,4-tetrahydroisoquinoline hydrochloride] |
| 250 | Cc1c(C)n(Cc2cccc(F)c2)c2c(N3CCc4ccc(Cl)cc4C3C)nccc12 (centres unmarked) [Example 539, 7-chloro-2-[1-(3-fluorobenzyl)-2,3-dimethyl-1H-pyrrolo[2,3-c]pyridin-7-yl]-1-methyl-1,2,3,4-tetrahydroisoquinoline hydrochloride] |
| 134 | Cc1c(C)n(Cc2ccc(C(C)(C)C)cc2)c2c(N3CCc4ccccc4C3)nc(C(=O)N3CCN(C)CC3)cc12 [Example 835, [1-(4-tert-butylbenzyl)-7-(3,4-dihydro-1H-isoquinolin-2-yl)-2,3-dimethyl-1H-pyrrolo[2,3-c]pyridin-5-yl]-(4-methylpiperazin-1-yl)-methanone hydrochloride] |
| 54 | Cc1c(C)n(Cc2cccc(Cl)c2)c2c(N3CCc4ccccc4C3)nc(C(=O)O)cc12 [Example 735, 1-(3-chlorobenzyl)-7-(3,4-dihydro-1H-isoquinolin-2-yl)-2,3-dimethyl-1H-pyrrolo[2,3-c]pyridin-5-carboxylic acid] |
| 10 | Cc1c(CC#N)c2ccnc(N3CCc4ccccc4C3)c2n1Cc1ccccc1 [Example 624, [1-benzyl-7-(3,4-dihydro-1H-isoquinolin-2-yl)-2-methyl-1H -pyrrolo[2,3-c]pyridin-3-yl]-acetonitrile hydrochloride] |
| 139 | C=CCn1c(C)c(C)c2cc(N)nc(N3CCc4ccccc4C3)c21 [Example 846, 1-allyl-7-(3,4-dihydro-1H-isoquinolin-2-yl)-2,3-dimethyl-1H-pyrrolo[2,3-c]pyridin-5-amine hydrochloride] |
| 393 | Cc1[nH]c2c(NCc3ccc(F)cc3)nc(C#N)cc2c1C [Example 910, 7-(4-fluorobenzylamino)-2,3-dimethyl-1H-pyrrolo[2,3-c]pyridin-5-carbonitrile hydrochloride] |
| 12 | Cc1c(C)n(Cc2ccccc2)c2c(N3CCc4ccccc4C3)nc(C(=O)N3CCN(C)CC3)cc12 [Example 819, [1-benzyl-7-(3,4-dihydro-1H-isoquinolin-2-yl)-2,3-dimethyl-1H-pyrrolo[2,3-c]pyridin-5-yl]-(4-methylpiperazin-1-yl)-methanone hydrochloride] |
| 129 | Cc1c(C)n(Cc2cccc(Cl)c2)c2c(N3CCc4ccccc4C3)nc(C(=O)N3CCN(C)CC3)cc12 [Example 836, [1-(3-chlorobenzyl)-7-(3,4-dihydro-1H-isoquinolin-2-yl)-2,3-dimethyl-1H-pyrrolo[2,3-c]pyridin-5-yl]-(4-methylpiperazin-1-yl)-methanone hydrochloride] |
| 4050 | Cc1c(C)n(CC2CC2)c2c(N3CCc4ccccc4C3)nc(C(N)=O)cc12 [Example 754, 1-cyclopropylmethyl-7-(3,4-dihydro-1H-isoquinolin-2-yl)-2,3-dimethyl-1H-pyrrolo[2,3-c]pyridin-5-carboxamide] |
| 32 | CCN1CCN(C(=O)c2cc3c(C)c(C)n(Cc4ccccc4)c3c(NCc3ccc(F)cc3)n2)CC1 [Example 907, [1-benzyl-7-(4-fluorobenzylamino)-2,3-dimethyl-1H-pyrrolo[2,3-c]pyridin-5-yl]-(4-ethylpiperazin-1-yl)-methanone hydrochloride] |
